What was measured:
[1] = tested on: HL-60 cells (human leukemia cells); assay: Apoptosis induction in HL-60 cells, propidium iodide (Example 9); type: cell-based; conditions: 20 μM, incubation for 6 hours; control 9.3
Procedure: HL-60 cells (human leukemia cells) were suspended in an RPMI-1640 with 10% fetal bovine serum added thereto, and the number of cells was counted. The suspension was adjusted to have a density of 5×10^5 cells/mL. Each 2 mL of the suspension was dispensed into Petri dishes. SBS prepared in Preparation Example 3 was diluted with dimethyl sulfoxide to 2 mM, and each 20 μL of the suspension was added thereto to have a final concentration of 20 μM. Only dimethyl sulfoxide was added to a control. Incubation was performed for 6 hours under the conditions of 37° C. and 5% CO2, and the cells were recovered, and washed with a phosphate buffered saline (PBS) by centrifugation. Four-percent paraformaldehyde was added to the cells, and the cells were allowed to stand at room temperature for 30 minutes to be fixed. After centrifugation, the supernatant was removed, and a PBS was added thereto, and the mixture was centrifuged and washed, and the cells were suspended in 200 μL of a PBS. Five-hundred microliters of 0.05 mg/mL propidium iodide was added thereto, and the mixture was incubated at 4° C. for 10 minutes. Thereafter, the number of whole cells and the number of cells which had undergone apoptosis were measured, and a ratio of induction of apoptosis was calculated according to the following equation (Table 11). […]

[2] = tested on: IMC carcinoma tumor cells; assay: IMC solid tumor growth in CDF1 mice, SBS orally (Example 10); type: in vivo; conditions: about 15.6 mg/kg/day orally in peanut oil with 10% ethanol; three weeks after transplantation of IMC
Text: As ICR mice (Japan SLC, Inc.), 5-week old female mice were purchased, and the animals were used at 6 weeks old. Sarcoma-180 (hereinafter, S-180) tumor cells were transplanted into an abdominal cavity of the ICR mice to give an ascites, and the ascites was passaged by transplanting into other mice every 7 days. An ascites on day 7 after passage was collected, washed with a phosphate buffered saline by centrifugation, and suspended in the same buffer. The number of cells was counted, and the suspension was adjusted to have a density of 5×10^7 cells/mL. Into ICR mice at right abdominal part was subcutaneously transplanted 0.1 mL of the cell suspension, and the size of a solid tumor after 7 days was measured. […] The size of the tumor was measured after four weeks from transplantation of S-180. In addition, as the size of the tumor, a length and a width were measured, to obtain the volume according to the following equation, followed by comparison. […]
The tumor-suppressing activity was calculated according to the following equation. […]
As CDF1 mice (Japan SLC, Inc.), 6-week old female mice were purchased, and the animals were used at 7 weeks olds. […] The number of cells was counted. […] Seven days after transplantation, take of a tumor was confirmed, and the size of a solid tumor was measured. […]

[3] = Toxicity on oral administration to mice; type: in vivo; conditions: orally administered, 25 mg/mouse/day

Which “Apoptosis-Inducing Ratio (%)” value [1] does the source give for `C=CC(C)(O)CC/C=C(\C)CCCC(C)(O)CCCC(C)(O)CCCC(C)(O)CCCC(C)(O)CCCC(C)(O)CCCC(C)(O)CCC=C(C)C` (stereo not shown) [SBS, hypsiziprenol A9] here?
The value was 30.1%.

What about the “Tumor Volume (Mean ± SD)” value [2] of the same compound?
Its value is 534.5 ± 92.3 mm^3.

What about the “Tumor-Suppressing Activity (%)” value [2] of the same compound?
Its value is 46.2%.

What about the toxicity [3] of the same compound?
The toxicity was “toxicity is not observed”.

— patent US20080038289A1, “Antitumor Agent” (priority 2004, published 2008)
